Results taken from patent US8058295B2, “Cystic fibrosis transmembrane conductance regulator protein inhibitors and uses thereof” (The Regents of the University of California, priority 2002, dated 2011).

What was measured:
wildtype CFTR = wildtype CFTR (Homo sapiens, UniProt P13569); assay: YFP fluorescence assay of CFTR-mediated I^− transport in FRT cells; format: cell-based; parameters: expressed in transfected cells; host or cells: Fischer rat thyroid (FRT) cells; conditions: relative to CFTRinh-172 = 1.0
wildtype CFTR, sequence (P13569 whole entry): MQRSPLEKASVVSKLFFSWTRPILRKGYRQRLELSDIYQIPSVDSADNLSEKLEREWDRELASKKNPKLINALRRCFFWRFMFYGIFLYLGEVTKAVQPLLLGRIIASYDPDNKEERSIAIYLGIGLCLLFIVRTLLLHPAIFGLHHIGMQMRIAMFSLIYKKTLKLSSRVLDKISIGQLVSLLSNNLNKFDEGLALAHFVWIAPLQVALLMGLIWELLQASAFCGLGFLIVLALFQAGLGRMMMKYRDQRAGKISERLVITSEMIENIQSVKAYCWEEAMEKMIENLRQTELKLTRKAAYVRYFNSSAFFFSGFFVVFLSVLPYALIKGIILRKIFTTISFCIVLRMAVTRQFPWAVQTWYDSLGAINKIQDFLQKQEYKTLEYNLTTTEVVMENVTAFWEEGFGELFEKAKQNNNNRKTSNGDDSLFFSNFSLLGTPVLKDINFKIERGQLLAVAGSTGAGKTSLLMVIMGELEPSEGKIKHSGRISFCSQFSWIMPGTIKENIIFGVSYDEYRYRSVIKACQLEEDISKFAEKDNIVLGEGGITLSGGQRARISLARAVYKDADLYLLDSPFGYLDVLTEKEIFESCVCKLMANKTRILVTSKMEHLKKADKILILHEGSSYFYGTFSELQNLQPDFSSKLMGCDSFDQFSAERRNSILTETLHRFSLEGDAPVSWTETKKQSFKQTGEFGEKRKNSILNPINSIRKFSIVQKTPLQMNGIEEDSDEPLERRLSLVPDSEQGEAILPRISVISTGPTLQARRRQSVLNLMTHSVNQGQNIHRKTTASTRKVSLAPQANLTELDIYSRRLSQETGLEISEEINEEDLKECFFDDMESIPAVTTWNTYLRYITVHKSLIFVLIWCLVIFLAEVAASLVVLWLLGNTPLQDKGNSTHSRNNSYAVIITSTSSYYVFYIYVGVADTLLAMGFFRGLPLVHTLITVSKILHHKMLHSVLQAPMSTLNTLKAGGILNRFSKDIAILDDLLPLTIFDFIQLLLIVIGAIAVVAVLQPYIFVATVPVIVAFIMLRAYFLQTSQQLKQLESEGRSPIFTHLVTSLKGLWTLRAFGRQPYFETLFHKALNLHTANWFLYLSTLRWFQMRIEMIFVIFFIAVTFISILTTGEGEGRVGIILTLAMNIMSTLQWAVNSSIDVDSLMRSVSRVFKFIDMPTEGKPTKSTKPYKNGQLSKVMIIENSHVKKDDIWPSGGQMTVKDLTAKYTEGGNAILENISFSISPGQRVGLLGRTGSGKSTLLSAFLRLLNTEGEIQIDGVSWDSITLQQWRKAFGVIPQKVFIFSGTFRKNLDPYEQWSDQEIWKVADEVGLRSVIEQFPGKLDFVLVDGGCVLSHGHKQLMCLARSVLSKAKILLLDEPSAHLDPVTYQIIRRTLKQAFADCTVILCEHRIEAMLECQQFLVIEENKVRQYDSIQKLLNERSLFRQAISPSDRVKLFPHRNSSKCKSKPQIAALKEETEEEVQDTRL
Method: FIG. 1A is a schematic representation of a screening technique used for detection of CFTR inhibitors. CFTR was maximally stimulated by multiple agonists in stably transfected epithelial cells co-expressing human CFTR and a yellow fluorescent protein (YFP) having Cl^−/I^− sensitive fluorescence. After addition of a test compound, I^− influx was induced by adding an I^− containing solution.
Cells were plated in 96-well black-walled microplates (Corning Costar) at a density of 20,000 cells per well in Coon's modified F12 medium supplemented with 5% fetal calf serum, 2 mM L-glutamine, 100 U/mL penicillin, and 100 μg/mL streptomycin. Assays were done at 48 hours after plating at which time cells were just confluent (˜40,000 cells per well).
Assays were done using a customized screening system (Beckman) consisting of a 3-meter robotic arm, CO2 incubator, plate washer, liquid handling workstation, bar code reader, delidding station, and two FluoStar fluorescence plate readers (BMG Labtechnologies, Offenburg, Germany), each equipped with two syringe pumps and HQ500/20X (500±10 nm) excitation and HQ535/30M (535±15 nm) emission filters (Chroma). The robotic system was integrated using SAMI version 3.3 software (Beckman) modified for two plate readers. Custom software was written in VBA (Visual Basic for Applications) to compute baseline-subtracted, normalized fluorescence slopes (giving halide influx rates) from stored data files.
The assay was set-up by loading the incubator (37° C., 90% humidity, 5% CO2) with 40-60 96-well plates containing the FRT cells, and loading a carousel with 96-well plates containing test compounds and disposable plastic pipette tips. To initiate the assay, each well of a 96-well plate was washed 3 times in PBS (300 μL/wash), leaving 50 μL PBS. Ten μL of a CFTR-activating cocktail (5 μM forskolin, 100 μM IBMX, 25 μM apigenin in PBS) was added, and after 5 min one test compound (0.5 μL of 1 mM DMSO solution) was added to each well to give 10 μM final concentration. After 10 min, 96-well plates were transferred to a plate reader for fluorescence assay. Each well was assayed individually for CFTR-mediated I^− transport by recording fluorescence continuously (200 ms per point) for 2 s (baseline) and then for 12 s after rapid (<0.5 s) addition of 160 μL of isosmolar PBS in which 137 mM Cl^− was replaced by I^−.
The primary screening technique used to identify the compounds of the invention was designed to identify inhibitors of CFTR Cl^− conductance by direct CFTR-inhibitor interaction. CFTR was pre-stimulated in CFTR-expressing FRT cells by an activating cocktail containing forskolin, IBMX and apigenin, as shown schematically in FIG. 1A. The activation of CFTR by multiple mechanisms (cAMP elevation, phosphodiesterase inhibition, and direct CFTR binding) allowed identification of inhibitors that blocked the CFTR Cl^− transporting pathway directly rather than more proximal step(s) in a signaling pathway. The FRT cells co-expressed a yellow fluorescent protein-based Cl^−/I^− sensor that provided a quantitative fluorescence read-out of inhibition potency (See, e.g., Jayaraman et al., 2000, J. Biol. Chem. 275:6047-6050; Galietta et al., 2001, Am. J. Physiol. 281:C1734-C1742.). After CFTR pre-stimulation and compound addition, cells were subjected to an inwardly-directed I^− gradient to drive I^− influx and produce decreasing fluorescence. Each assay consisted of recording baseline fluorescence for 2 seconds, followed by 12 seconds of continuous recording of fluorescence after rapid addition of the I^− containing solution. Compounds were tested separately at 10 μM concentration in a 96-well format utilizing a fully-automated high-throughput screening apparatus (see Example 2 below).

Caco-2 monolayers = conditions: literature values, Stenberg et al.; cited from earlier work
MDR-1 = target: T1, MDR-1 (Homo sapiens, UniProt P08183); assay: MDR-1 activity, ^3H-vincristine accumulation in 9HTEo-/Dx cells; format: cell-based; conditions: 100 μM
T1 construct: endogenous in cells; host or cells: 9HTEo-/Dx cells
T1 sequence (P08183 whole entry): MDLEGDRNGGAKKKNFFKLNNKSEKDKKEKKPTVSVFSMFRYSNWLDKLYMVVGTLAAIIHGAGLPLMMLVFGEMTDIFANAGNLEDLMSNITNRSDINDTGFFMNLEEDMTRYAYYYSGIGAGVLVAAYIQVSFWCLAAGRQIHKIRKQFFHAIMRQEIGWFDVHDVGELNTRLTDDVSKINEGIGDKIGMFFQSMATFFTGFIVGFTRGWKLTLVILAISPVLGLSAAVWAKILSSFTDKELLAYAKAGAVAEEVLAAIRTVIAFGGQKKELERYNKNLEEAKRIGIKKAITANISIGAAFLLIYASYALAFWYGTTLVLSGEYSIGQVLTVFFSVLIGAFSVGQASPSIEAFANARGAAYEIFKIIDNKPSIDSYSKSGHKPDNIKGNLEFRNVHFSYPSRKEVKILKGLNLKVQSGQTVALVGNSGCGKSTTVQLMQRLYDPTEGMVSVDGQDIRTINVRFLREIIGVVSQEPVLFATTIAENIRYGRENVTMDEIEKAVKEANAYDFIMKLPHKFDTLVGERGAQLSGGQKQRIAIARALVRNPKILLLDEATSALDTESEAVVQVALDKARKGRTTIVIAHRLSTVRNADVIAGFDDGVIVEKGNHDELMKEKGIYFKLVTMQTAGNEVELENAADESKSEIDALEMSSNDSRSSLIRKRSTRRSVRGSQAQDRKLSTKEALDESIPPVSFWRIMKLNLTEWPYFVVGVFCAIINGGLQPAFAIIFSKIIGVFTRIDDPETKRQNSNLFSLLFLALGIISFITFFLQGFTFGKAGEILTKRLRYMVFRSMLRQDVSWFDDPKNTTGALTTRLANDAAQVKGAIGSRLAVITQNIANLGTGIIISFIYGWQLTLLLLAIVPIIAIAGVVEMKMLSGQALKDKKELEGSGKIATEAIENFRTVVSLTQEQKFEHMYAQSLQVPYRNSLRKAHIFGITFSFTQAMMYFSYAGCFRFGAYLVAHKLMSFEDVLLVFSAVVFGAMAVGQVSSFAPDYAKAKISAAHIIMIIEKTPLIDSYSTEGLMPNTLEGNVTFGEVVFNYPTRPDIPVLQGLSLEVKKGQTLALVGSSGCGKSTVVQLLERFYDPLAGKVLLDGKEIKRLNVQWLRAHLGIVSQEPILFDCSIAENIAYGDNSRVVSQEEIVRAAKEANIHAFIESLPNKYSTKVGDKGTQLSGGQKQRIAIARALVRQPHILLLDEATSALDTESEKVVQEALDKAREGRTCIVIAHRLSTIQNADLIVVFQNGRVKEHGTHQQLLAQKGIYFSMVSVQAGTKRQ

Compound | relative potency (CFTR inhibition) (wildtype CFTR) | also measured
O=C(O)c1ccccc1C=C1SC(=S)N(c2ccccc2C(F)(F)F)C1=O [3, 3, 3-[(a-trifluoromethyl)phenyl]-5-[(b-carboxyphenyl)methylene]-2-thioxo-4-thiazolidinone] | 0.90 | –
O=C1/C(=C/c2cc(Br)c(O)c(Br)c2)SC(=S)N1c1cccc(C(F)(F)F)c1 [CFTRinh-214, 3-[(3-trifluoromethyl)phenyl]-5-[(3,5-dibromo-4-hydroxyphenyl)methylene]-2-thioxo-4-thiazolidinone] | 0.1 | –
O=C(O)c1ccccc1C=C1SC(=S)N(c2ccccc2C(F)(F)F)C1=O [2, 4, 3-[(a-trifluoromethyl)phenyl]-5-[(b-carboxyphenyl)methylene]-2-thioxo-4-thiazolidinone] | 0.66 | –
O=C1/C(=C/c2ccc([N+](=O)[O-])cc2)SC(=S)N1c1cccc(C(F)(F)F)c1 [CFTRinh-020, 3-[(3-trifluoromethyl)phenyl]-5-[(4-nitrophenyl)methylene]-2-thioxo-4-thiazolidinone] | 0.2 | –
O=C1/C(=C/c2ccc(O)c(O)c2)SC(=S)N1c1cccc(C(F)(F)F)c1 [CFTRinh-185, 3-[(3-trifluoromethyl)phenyl]-5-[(3,4-dihydroxyphenyl)methylene]-2-thioxo-4-thiazolidinone] | 0.2 | –
O=C1/C(=C/c2cc(Br)c(O)c([N+](=O)[O-])c2)SC(=S)N1c1cccc(C(F)(F)F)c1 [CFTRinh-236, 3-[(3-trifluoromethyl)phenyl]-5-[(3-bromo-4-hydroxy-5-nitrophenyl)methylene]-2-thioxo-4-thiazolidinone] | 0.1 | –
O=C(O)c1ccccc1C=C1SC(=S)N(c2ccccc2C(F)(F)F)C1=O [4, 2, 3-[(a-trifluoromethyl)phenyl]-5-[(b-carboxyphenyl)methylene]-2-thioxo-4-thiazolidinone] | 0.67 | –
CC(C)NCC(O)COc1cccc2[nH]ccc12 (stereo not shown) [pindolol] | – | permeability coefficient (Caco-2 monolayers): 36 ×10⁻⁶ cm/s
CCCc1nn(C)c2c(=O)[nH]c(-c3cc(S(=O)(=O)N4CCN(C)CC4)ccc3OCC)nc12 [sildenafil] | – | permeability coefficient (Caco-2 monolayers): 48 ×10⁻⁶ cm/s
O=C(O)Oc1ccc(/C=C2\SC(=S)N(c3cccc(C(F)(F)F)c3)C2=O)cc1 [CFTRinh-029, 3-[(3-trifluoromethyl)phenyl]-5-[(4-oxycarboxyphenyl)methylene]-2-thioxo-4-thiazolidinone] | 0.3 | –
COc1ccc(CCN(C)CCCC(C#N)(c2ccc(OC)c(OC)c2)C(C)C)cc1OC (stereo not shown) [verapamil, reference compound] | – | vincristine accumulation (MDR-1): strongly increased

Second part, led by results:

relative potency (CFTR inhibition) (wildtype CFTR) | Compound | also measured
0.64 | O=C(O)c1ccccc1C=C1SC(=S)N(c2ccccc2C(F)(F)F)C1=O [4, 3, 3-[(a-trifluoromethyl)phenyl]-5-[(b-carboxyphenyl)methylene]-2-thioxo-4-thiazolidinone] | –
0.70 | O=C(O)c1ccccc1C=C1SC(=S)N(c2ccccc2C(F)(F)F)C1=O [2, 3, 3-[(a-trifluoromethyl)phenyl]-5-[(b-carboxyphenyl)methylene]-2-thioxo-4-thiazolidinone] | –
0.74 | O=C(O)c1ccccc1C=C1SC(=S)N(c2ccccc2C(F)(F)F)C1=O [3, 2, 3-[(a-trifluoromethyl)phenyl]-5-[(b-carboxyphenyl)methylene]-2-thioxo-4-thiazolidinone] | –
0.69 | O=C(O)c1ccccc1C=C1SC(=S)N(c2ccccc2C(F)(F)F)C1=O [a=2, b=2, 3-[(a-trifluoromethyl)phenyl]-5-[(b-carboxyphenyl)methylene]-2-thioxo-4-thiazolidinone] | –
0.56 | O=C(O)c1ccccc1C=C1SC(=S)N(c2ccccc2C(F)(F)F)C1=O [4, 4, 3-[(a-trifluoromethyl)phenyl]-5-[(b-carboxyphenyl)methylene]-2-thioxo-4-thiazolidinone] | –
